# Earlier results in patent publication US9662309B2, “Anti-demodicosis agent” (BAYER INTELLECTUAL PROPERTY GMBH, priority 2004, dated 2017).
# Tested on: demodicosis
# Details: spot-on treatment 3 times weekly
substance,measurement,value
"22,23-dihydroavermectin B1 [ivermectin]",effectiveness against demodicosis,insufficiently effective
